Measurements from patent publication US5691348A, “Pyridyl imidazole derivatives and processes for the preparation thereof” (Daewoo Electronics Co., Ltd., priority 1994, dated 1997).

What was measured:
[1] = system: furosemide-administered dogs; assay: Duration of action in furosemide-administered dogs; format: in vivo, dog; details: 0.3 mg oral
Method: (§1) A number of dog was fed freely in a feeding room and those weighing 7 to 12 kg in good health were selected regardless of their gender.
(§2) The test dog was anesthetized with 30 mg/kg of pentobarbital sodium by intravenous injection and the left femoral artery and femoral vein were separated carefully. Silicone catheter, specially prepared and filled with saline treated with heparin (1,000 IU/ml), was cannulated into the blood vessels. After the surgery, the dog was constrained to measure the blood pressure continuously with Gould 2000 physiograph adapted to a Grass P23XL pressure transducer; and the heart rate was monitored with ECG/Biotacho amplifier. The dog was tested at least 2 days after the surgery.
(§3) 10 mg/kg of furosemide was injected intramuscularly 18 hours (in case of intravenous injection, 2 hours) before the beginning of the test (administration of the test compound) to improve the activity of renin in blood plasma. After the injection of furosemide, neither food nor water was provided. […] The blood pressure and heart rate were measured up to 8 hours after the administration of each test compound.
The compound of Example 1 and the Merck compound were administered orally to the furosemide-administrated dogs as in test 3(i), and blood pressure lowering effect was measured with time.

[2] = system: unanesthetized dogs; assay: Blood pressure variation with time in unanesthetized dogs; format: in vivo, dog; details: 1.0 mg, oral
Method: as §1, §2, §3

[3] = system: renal hypertensive rat; assay: Blood pressure lowering effect in renal hypertension; format: in vivo, Sprague-Dawley rat; details: Amount 3 mg; intravenous or oral (not specified)
Text: (§4) To induce renal hypertension, left renal artery of 4 week-old male Sprague-Dawley rat (from The Korea Research Institute of Chemical Technology) was ligated. The rat was anesthetized with ether and the surgical region on the left abdomen of the rat was shaved, disinfected, and then incised about 1 cm vertically. The renal artery near abdominal aorta was isolated carefully from surrounding tissues and veins, and then ligated completely with a suture (4/0 sterile surgical silk). The muscular strata and skin of the surgical area were sutured with a suture (4/0 sterile surgical silk). The surgical region was disinfected to prevent infection and thereafter, 200 to 250 mg/kg/day of cephazolin sodium was injected intramuscularly for 2 days. 6 to 8 days after the ligation, rats showing systolic pressure of more than 180 mmHg were selected for renal hypertension test. The blood pressure was determined by a tail-cuff method from the tail under unanesthetized condition (Gerold, M. et al., Arzneimittel-Forsch., 18, 1285(1968)).
(§5) Each of the compounds to be tested was administered intravenously or orally into the renal hypertensive rat. The blood pressure of the rat was determined by direct method (Chiu, A. T. et al., J. Pharmacol. Exp. Ther., 250, 867(1989)) using a catheter. The rat was anesthetized with ketamine hydrochloride (125 mg/kg, i.p.) and a catheter was filled with saline and inserted into a carotid artery and […]. The surgical area was sutured with a metal clip. The rat was relaxed at least 3 hours and the catheter in the carotid artery was adapted to an isotec pressure transducer to determine the blood pressure and heart rate with a physiograph (Linearcorder WR3310). After the blood pressure was stabilized, the test compound was administered intravenously or orally. For intravenous administration, the administered volume and washing volume were 1.0 ml/kg and 0.2 ml, respectively. The blood pressure and heart rate were measured in regular intervals up to 24 hours after the administration of the test compound and compared with those measured after the administration of the control compound Losartan.
(§6) The test compound was dissolved in 0.05N KOH for intravenous administration and suspended in Tween 80 for oral administration.

[4] = system: renal hypertensive rats; assay: Duration of action in renal hypertensive rats; format: in vivo, Sprague-Dawley rat; details: 3 mg/kg oral
Text: as §4, §5, §6
The compound of Example 1 and the Merck compound were tested using the hypertensive rats of test 2(i). 3 mg/kg of each compound was administered orally and blood pressure lowering effect with time was determined to measure the duration of action of the compounds.

Compound: CCCCc1nc2cc(-c3cccc[n+]3[O-])c(CO)nc2n1Cc1ccc(-c2ccccc2-c2nn[nH]n2)cc1 [Example 1, 2-Butyl-5-hydroxymethyl-6-(1-oxy-pyridin-2-yl)-3-[2'-(1H-tetrazol-5-yl)-biphenyl-4-ylmethyl]-3H-imidazo[4,5-b]pyridine]
- Maximum Blood Pressure Lowering Effect ([1]; 0 min): 0.0%
- Maximum Blood Pressure Lowering Effect ([1]; 10 min): 2.2%
- Maximum Blood Pressure Lowering Effect ([1]; 20 min): -1.1%
- Maximum Blood Pressure Lowering Effect ([1]; 30 min): -5.9%
- Maximum Blood Pressure Lowering Effect ([1]; 60 min): -11.4%
- Maximum Blood Pressure Lowering Effect ([1]; 90 min): -12.9%
- Maximum Blood Pressure Lowering Effect ([1]; 120 min): -14.8%
- Maximum Blood Pressure Lowering Effect ([1]; 150 min): -16.1%
- Maximum Blood Pressure Lowering Effect ([1]; 180 min): -16.7%
- Maximum Blood Pressure Lowering Effect ([1]; 210 min): -17.4%
- Maximum Blood Pressure Lowering Effect ([1]; 240 min): -18.2%
- Maximum Blood Pressure Lowering Effect ([1]; 270 min): -17.0%
- Maximum Blood Pressure Lowering Effect ([1]; 300 min): -20.5%
- Maximum Blood Pressure Lowering Effect ([1]; 330 min): -20.7%
- Maximum Blood Pressure Lowering Effect ([1]; 360 min): -20.4%
- Maximum Blood Pressure Lowering Effect ([1]; 390 min): -20.1%
- Maximum Blood Pressure Lowering Effect ([1]; 420 min): -20.5%
- Maximum Blood Pressure Lowering Effect ([1]; 450 min): -20.5%
- Maximum Blood Pressure Lowering Effect ([1]; 480 min): -20.0%
- time for which the maximum blood pressure lowering effect lasted after the administration ([1]; Table 6, dogs): up to 8 hours
- Maximum Blood Pressure Lowering Effect ([2]; 0.5 hr): -17.5%
- Maximum Blood Pressure Lowering Effect ([2]; 1 hr): -21.4%
- Maximum Blood Pressure Lowering Effect ([2]; 2 hr): -23.6%
- Maximum Blood Pressure Lowering Effect ([2]; 4 hr): -24.8%
- Maximum Blood Pressure Lowering Effect ([2]; 6 hr): -21.7%
- Maximum Blood Pressure Lowering Effect ([2]; 8 hr): -13.2%
- Maximum Blood Pressure Lowering Effect [3]: -60%
- Maximum Blood Pressure Lowering Effect ([4]; 0 min): 0%
- Maximum Blood Pressure Lowering Effect ([4]; 10 min): -11%
- Maximum Blood Pressure Lowering Effect ([4]; 20 min): -19%
- Maximum Blood Pressure Lowering Effect ([4]; 30 min): -32%
- Maximum Blood Pressure Lowering Effect ([4]; 60 min): -48%
- Maximum Blood Pressure Lowering Effect ([4]; 90 min): -42%
- Maximum Blood Pressure Lowering Effect ([4]; 120 min): -44%
- Maximum Blood Pressure Lowering Effect ([4]; 240 min): -58%
- Maximum Blood Pressure Lowering Effect ([4]; 360 min): -60%
- Maximum Blood Pressure Lowering Effect ([4]; 1320 min): -48%
- Maximum Blood Pressure Lowering Effect ([4]; 1440 min): -49%
- duration of action compared with the Merck compound ([4]; renal hypertensive rats): far longer duration of action than the Merck compound
